Results on 21 compounds are retold here after patent US20250002464A1, “NOVEL COMPOUND AND PHARMACEUTICAL COMPOSITION COMPRISING SAME” (SAPIENSBIO INC., priority 2021, published 2025).

The first test relates to MCR5 cell line. The test is described as follows: intracellular F-actin polymerization, TGF-β1-treated cells, confocal microscope. Type of test: cell-based. Conditions: 10 μM along with TGF-β1 (10 ng/mL), 48 hours (FIGS. 2A and 2B). From the text:
F-actin polymerization activates transcription factors involved in the activation of myofibroblasts and the initiation of fibrosis. Accordingly, when F-actin polymerization decreases, the expression of fibrosis-causing genes by the transcription factors may be inhibited, and the activation and fibrosis of muscle fiber cells may be reduced. Therefore, in this example, it was confirmed whether the compounds according to the present invention are effective in inhibiting F-actin polymerization.
An MCR5 cell line was dispensed at 1×10^3 cells/well in a 96-well black micro plate and cultured in Medium 1 (10% FBS-containing MEM) in 5% CO2 at 37° C. for 24 hours. Subsequently, the above medium was exchanged with Medium 2 (0.5% FBS-containing MEM), a compound of the present invention was treated at 10 μM along with TGF-β1 (10 ng/mL), and the cells were incubated for 48 hours. After removing the entire batch, the cells were treated with each of CellMask Orange Actin Tracking Stain (Invitrogen) and NucBlue Live ReadyProbes (Invitrogen) to performing F-actin and cell nucleus staining in accordance with the manufacturer's recommended conditions. Cells treated with the staining reagents were incubated for 30 minutes at 5% CO2 and 37° C. while blocking light. After completing the incubation, the staining reagents were removed, fresh Medium 1 was added to the cells at 100 μL/well, and then the cells were incubated for 5 minutes, followed by removal of the medium. The above process was repeated three times. To observe the stained F-actin and cell nucleus, PBS was added to the plate at 100 μL/well, and then the cells were photographed using a confocal microscope (Leica) and analyzed using Image J software.
Turning to `CC(C(=O)N1CCN(c2ccccc2)c2cc(F)ccc21)N1CCCCC1` (stereo not shown) [Compound 12, 1-(6-fluoro-4-phenyl-3,4-dihydroquinoxaline-1(2H)-yl)-2-(piperidin-1-yl)propan-1-one], the “intracellular F-actin polymerization” value is given as “significantly reduced”.
In the case of `O=C(CCN1CCCCC1)N1CCN(c2ccc(F)cc2)c2cc(F)ccc21` [Compound 38, 1-(6-fluoro-4-(4-fluorophenyl)-3,4-dihydroquinoxaline-1(2H)-yl)-3-(piperidin-1-yl)propan-1-one], the “intracellular F-actin polymerization” value was “significantly reduced”.

System in a further test: not given
Experiment: not given
The conditions noted are these: clinical use in IPF patients; cited from earlier work.
As for `Cc1ccc(=O)n(-c2ccccc2)c1` [Pirfenidone], the “improvement in lung function (treatment effect) in IPF” value is “about 10%”.

For another test, the system named is α-SMA. Nature of the test: α-SMA expression inhibitory ability in MRC5 cell line (Western blotting). Type of test: cell-based. Conditions: TGF-β1 (10 ng/mL), 72 hours, relative to TGF-β1 only. The method, boiled down: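 MRC5 cells given compound at 10 μM, then TGF-β1 (10 ng/mL) 2 h later; after 72 h, lysates probed for α-SMA by Western blot. Inhibition is α-SMA level relative to TGF-β1 alone, binned A ≥70%, B 50–<70%, C <50%.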
For orientation: Immunoblotting shows a protein as a band on a membrane.
On to `CC(C(=O)N1CCN(c2ccccc2)c2cc(F)ccc21)N1CCCCC1` (stereo not shown) [Compound 12, 1-(6-fluoro-4-phenyl-3,4-dihydroquinoxaline-1(2H)-yl)-2-(piperidin-1-yl)propan-1-one], for which the inhibition at 10 µM is at least 70%.
In the case of `O=C(CCN1CCCCC1)N1CCN(c2ccc(F)cc2)c2cc(F)ccc21` [Compound 38, 1-(6-fluoro-4-(4-fluorophenyl)-3,4-dihydroquinoxaline-1(2H)-yl)-3-(piperidin-1-yl)propan-1-one], the inhibition at 10 µM is at least 70%.
Same read-out and setting: next, `O=C(CCN1CCCCC1)N1CCN(Cc2ccccn2)c2ccccc21` [Compound 115, 3-(piperidin-1-yl)-1-(4-(pyridin-2-ylmethyl)-3,4-dihydroquinoxaline-1(2H)-yl)propan-1-one]: below 50%; `O=C(CCN1CCCCC1)N1CCN(C2CCCCC2)c2ccccc21` [Compound 187, 1-(4-cyclohexyl-3,4-dihydroquinoxaline-1(2H)-yl)-3-(piperidin-1-yl)propan-1-one]: at least 70%.
`CC(C(=O)N1CCN(c2ccccn2)c2ccccc21)N1CCCC1` (stereo not shown) [Compound 149] had an inhibition at 10 µM below 50%.
As to `CN1CCN(CC(=O)N2CCN(Cc3ccccn3)c3ccccc32)CC1` [Compound 118, 2-(4-methylpiperazin-1-yl)-1-(4-(pyridin-2-ylmethyl)-3,4-dihydroquinoxaline-1(2H)-yl)ethan-1-one], the inhibition at 10 µM is below 50%.
The same measure, in the same setting: next, `CC(C(=O)N1CCN(c2ccccc2Cl)c2ccccc21)N1CCN(C)CC1` (stereo not shown) [Compound 130, 1-(4-(2-chlorophenyl)-3,4-dihydroquinoxaline-1(2H)-yl)-2-(4-methylpiperazin-1-yl)propan-1-one]: 50 to 70%; `O=C(CN1CCCCC1)N1CCN(Cc2cccc(Cl)c2)c2ccccc21` [Compound 103, 1-(4-(3-chlorobenzyl)-3,4-dihydroquinoxaline-1(2H)-yl)-2-(piperidin-1-yl)ethan-1-one]: 50 to 70%; `O=C(CN1CCCC1)N1CCN(C2CCCCC2)c2ccccc21` [Compound 193, 1-(4-cyclohexyl-3,4-dihydroquinoxaline-1(2H)-yl)-2-(pyrrolidin-1-yl)ethan-1-one]: below 50%.
Turning to `O=C(CCN1CC[C@H](O)C1)N1CCN(c2ccc(F)cc2)c2cc(F)ccc21` [Compound 44, (S)-1-(6-fluoro-4-(4-fluorophenyl)-3,4-dihydroquinoxaline-1(2H)-yl)-3-(3-hydroxypyrrolidin-1-yl)propan-1-one], the inhibition at 10 µM is at least 70%.
In the case of `CC(C)CN1CCN(C(=O)CN2CCCCC2)c2ccccc21` [Compound 175, 1-(4-isobutyl-3,4-dihydroquinoxaline-1(2H)-yl)-2-(piperidin-1-yl)ethan-1-one], the inhibition at 10 µM is below 50%.
For `CN1CCN(CCC(=O)N2CCN(Cc3ccccc3)c3ccccc32)CC1` [Compound 80, 1-(4-benzyl-3,4-dihydroquinoxaline-1(2H)-yl)-3-(4-methylpiperazin-1-yl)propan-1-one], the inhibition at 10 µM was in the range of 50 to 70%.
On the same count and under the same terms, next, `CC(C(=O)N1CCN(c2cccc(Cl)c2)c2ccccc21)N1CCCC1` (stereo not shown) [Compound 136, 1-(4-(3-chlorophenyl)-3,4-dihydroquinoxaline-1(2H)-yl)-2-(pyrrolidin-1-yl)propan-1-one]: at least 70%; `C[C@H]1CCCCN1C(=O)CN1CCN(c2ccccc2)c2ccccc21` [Compound 71, (S)-1-(2-methylpiperidin-1-yl)-2-(4-phenyl-3,4-dihydroquinoxaline-1(2H)-yl)ethan-1-one]: below 50%.
On to `O=C(CN1CCCCC1)N1CCN(C2CCCCC2)c2ccccc21` [Compound 194, 1-(4-cyclohexyl-3,4-dihydroquinoxaline-1(2H)-yl)-2-(piperidin-1-yl)ethan-1-one], for which the inhibition at 10 µM is below 50%.
Regarding `CN1CCN(CC(=O)N2CCN(Cc3cccc(Cl)c3)c3ccccc32)CC1` [Compound 104, 1-(4-(3-chlorobenzyl)-3,4-dihydroquinoxaline-1(2H)-yl)-2-(4-methylpiperazin-1-yl)ethan-1-one], the inhibition at 10 µM is at least 70%.
Turning to `O=C(CCN1CCCC1)N1CCN(CC2CC2)c2ccccc21` [Compound 161, 1-(4-(cyclopropylmethyl)-3,4-dihydroquinoxaline-1(2H)-yl)-3-(pyrrolidin-1-yl)propan-1-one], the inhibition at 10 µM was below 50%.
`O=C(CN1CCCC1)N1CCN(c2cccc(Cl)c2)c2ccccc21` [Compound 138, 1-(4-(3-chlorophenyl)-3,4-dihydroquinoxaline-1(2H)-yl)-2-(pyrrolidin-1-yl)ethan-1-one] returned an inhibition at 10 µM of at least 70%.
`O=C(CN1CCCCC1)N1CCN(Cc2ccccc2Cl)c2ccccc21` [Compound 94, 1-(4-(2-chlorobenzyl)-3,4-dihydroquinoxaline-1(2H)-yl)-2-(piperidin-1-yl)ethan-1-one] registered an inhibition at 10 µM of 50 to 70%.
With `CN1CCN(CC(=O)N2CCN(c3ccccn3)c3ccccc32)CC1` [Compound 154, 2-(4-methylpiperazin-1-yl)-1-(4-(pyridin-2-yl)-3,4-dihydroquinoxaline-1(2H)-yl)ethan-1-one di L-tartrate], the inhibition at 10 µM was at least 70%.

The subject of another test is Arp2/3 complex. Nature of the test: in vitro actin polymerization test (pyrene-labeled actin). The conditions noted are these: 10 μM, VCA domain protein, spherical actin monomers, 1 hour, compared to control (FIG. 1). Type of test: biochemical. The method, then: Although actin polymerization, which is a process of forming actin filaments from actin monomers, is involved in controlling cell movement, tissue fibrosis may be caused by the promotion of excessive α-SMA expression and induction of myofibroblast activation. Accordingly, an in vitro actin polymerization test was performed to confirm the actin polymerization controlling function of the compounds according to the present invention.
Specifically, a pyrene-labeled spherical actin stock was diluted with general actin buffer (5 mM Tris-HCl pH 8.0, 0.2 mM CaCl2)) and incubated at 4° C. for 1 hour, thereby producing spherical actin monomers. Afterward, 80% of a supernatant was recovered by centrifugation at 20,000×g and 4° C. for 3 hours, and 0.1 mg/mL spherical actin monomers were prepared. The Arp2/3 complex, the VCA domain protein, and Compound 12, 38, or 59 (10 μM each) according to the present invention were added to the spherical actin monomers and an actin polymerization buffer and reacted at room temperature for 1 hour. The increased fluorescence intensity during the reaction from the spherical actin monomer to a fibrous actin polymer was measured using a microplate reader at an excitation wavelength of 360 nm and an emission wavelength of 407 nm. The degree of actin polymerization was shown relative to the maximum polymerization rate (arbitrary units).
Turning to `CC(C(=O)N1CCN(c2ccccc2)c2cc(F)ccc21)N1CCCCC1` (stereo not shown) [Compound 12, 1-(6-fluoro-4-phenyl-3,4-dihydroquinoxaline-1(2H)-yl)-2-(piperidin-1-yl)propan-1-one], the “actin polymerization activity (maximum polymerization rate)” value was “decreased compared to the control”.
With `O=C(CCN1CCCCC1)N1CCN(c2ccc(F)cc2)c2cc(F)ccc21` [Compound 38, 1-(6-fluoro-4-(4-fluorophenyl)-3,4-dihydroquinoxaline-1(2H)-yl)-3-(piperidin-1-yl)propan-1-one], the “actin polymerization activity (maximum polymerization rate)” value is “decreased compared to the control”.

As usually defined, the inhibition is the share of the control response that was lost under treatment. A high value points to strong suppression.
